From PubChem BioAssay (NCI)
“And” between values parts separate entries of the source, which are not always exact repeats. Equal values may be shown once.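 Step 1: Grow cells in 96-well plates. Step 2: Expose to compound for 48 hours at 5 concentrations. Step 3: Interpolate endpoints linearly; if unreached, use highest concentration. At the GI50, growth is halved. TGI: total growth inhibition.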

Experiments:
Assay in all cases: DTP human tumour cell line panel, 48 h
MOLT-4 leukemia = test system: MOLT-4 leukemia
HS 578T breast = test system: HS 578T breast
SR leukemia = test system: SR leukemia
NCI-H460 lung = test system: NCI-H460 lung
SF-539 CNS = test system: SF-539 CNS
BT-549 breast = test system: BT-549 breast
MDA-N = test system: MDA-N
OVCAR-4 ovarian = test system: OVCAR-4 ovarian
RXF 393 renal = test system: RXF 393 renal
MCF7 breast = test system: MCF7 breast
CCRF-CEM leukemia = test system: CCRF-CEM leukemia
CAKI-1 renal = test system: CAKI-1 renal

| Compound | TGI (MOLT-4 leukemia) | TGI (HS 578T breast) | TGI (SR leukemia) | TGI (NCI-H460 lung) [µM] | TGI (SF-539 CNS) [µM] | TGI (BT-549 breast) | TGI (MDA-N) | TGI (OVCAR-4 ovarian) | TGI (RXF 393 renal) | TGI (MCF7 breast) | TGI (CCRF-CEM leukemia) | TGI (CAKI-1 renal) | GI50 (NCI-H460 lung) | GI50 (SF-539 CNS) | GI50 (RXF 393 renal) |
| --- | --- | --- | --- | --- | --- | --- | --- | --- | --- | --- | --- | --- | --- | --- | --- |
| Cc1ccc(N=Nc2ccc(O)c(CN(C)C)c2)cc1 | 53.4 µM | 41.9 µM | > 100 µM | 33.8 | 33.3 | 79.9 µM | 30.6 µM | 53.5 µM | 34.2 µM | 73.9 µM | 63 µM | 61.3 µM |  |  |  |
| CC(=O)Nc1cc2c3c(c1)CCCN3CCC2 | > 100 µM | > 100 µM | > 100 µM | > 100 | > 100 | > 100 µM | > 100 µM | > 100 µM | > 100 µM | > 100 µM | > 100 µM | > 100 µM |  |  |  |
| CC(C)NC(=O)OCc1c(COC(=O)NC(C)C)c(-c2cc[n+](COC(=O)C(C)(C)C)cc2)n2c1CCC2 | > 100 µM | > 100 µM | > 100 µM | > 100 | > 100 | > 100 µM | > 100 µM | > 100 µM | > 100 µM | > 100 µM | > 100 µM | > 100 µM |  |  |  |
| CC(NC(=O)c1ccccc1)NC(=O)C(C)C(=O)Nc1ccccc1 (stereo not given) | > 100 µM | > 100 µM | > 100 µM | > 100 | > 100 | > 100 µM | > 100 µM | > 100 µM | > 100 µM | > 100 µM | > 100 µM | > 100 µM |  |  |  |
| CCCCCCOc1ccc(C(=O)NO)cc1 | 18.7 µM | 67.2 µM | 23.6 µM | 20.8 | 45.7 | 72.8 µM | 34.1 µM | > 66.3 µM | 30.1 µM | > 100 µM | 5.27 µM | 19.2 µM |  |  |  |
| Cc1ccc(Nc2c(C#N)[n+]([O-])c3cc(Cl)ccc3[n+]2[O-])cc1 | > 100 µM | > 100 µM | > 36.3 µM | > 100 | > 100 | > 100 µM | > 100 µM | > 100 µM | > 100 µM | > 100 µM | > 100 µM | > 100 µM |  |  |  |
| COC(=O)C1OC(O[C@H]2CC[C@]3(C)[C@H]4CC=C5[C@@H]6CC(C)(C)CC[C@]6(C(=O)OC6OCC(O)C(O)C6OC6OC(C)C(OC7OCC(O)C(OC8OCC(O)C(O)C8O)C7O)C(OC7OCC(O)C(O)C7O)C6O)CC[C@@]5(C)[C@]4(C)CC[C@H]3C2(C)C)C(O)C(OC2OCC(O)C(O)C2O)C1O (stereo not given in full) | 27.6 µM and 28.4 µM | > 100 µM and 33.9 µM | 4.76 µM and 7.55 µM | > 100 | > 100 | 8.45 µM and 9.89 µM | 3.35 µM and 4.04 µM | > 100 µM and 20.2 µM | > 67 µM and 35.6 µM | > 84.5 µM and 20.9 µM | > 100 µM and 30.2 µM | 35.4 µM and 17.9 µM | > 100 µM and 33.1 µM | > 100 µM and 47.6 µM | 6.36 µM and 13.7 µM |
| CC(SC(=S)N1CCOCC1)C(=O)Nc1nnc(-c2ccccc2)o1 (stereo not given) | > 100 µM | > 100 µM | > 100 µM | > 100 | > 100 | > 100 µM | > 100 µM | > 100 µM | > 100 µM | > 100 µM | 18.3 µM | > 100 µM |  |  |  |
| COc1cc2cccc(N)c2cc1OC | > 100 µM | > 100 µM | > 100 µM | > 100 | > 100 | > 92.6 µM | > 100 µM | > 100 µM | > 100 µM | > 100 µM | > 100 µM | > 100 µM |  |  |  |
| COc1ccc(C(CC(=O)C(C)(C)CN2CCCCC2)SCCS(=O)(=O)O)cc1 (stereo not given) | 57 µM | > 100 µM | 49.7 µM | > 100 | 38.8 | > 100 µM | 96.2 µM | > 100 µM | > 100 µM | > 100 µM | 55.1 µM | > 100 µM |  |  |  |
| CCOC(=O)CSc1nnc2cc(CN3CCCC3)c(-c3ccc(Cl)cc3)nn12 | > 100 µM | > 100 µM | > 100 µM | > 100 | > 100 | > 100 µM | > 100 µM | > 100 µM | > 100 µM | > 100 µM | > 100 µM | > 100 µM |  |  |  |
